US4118506A, “Pharmaceutical compositions containing 1,3-dithiol-2-ylidene malonate derivatives” (Nihon Nohyaku Co., Ltd., priority 1976, dated 1978)

Key:
[1] = test system: liver injury and chronic hepatitis; assay: clinical test on liver injury and chronic hepatitis; type: in vivo, human; details: for p-GOT activity / p-GPT activity: tablets of Example 6, 12 a day
Method: Six patients were used for the test. One was diagnosed as liver injury caused by administration of PAS (p-aminosalicyclic acid) for three months and five were diagnosed as chronic hepatitis by doctor.
The tablets obtained in Example 6 were orally administered to the respective patients at the dose of twelve tablets a day (four tablets after every meal).
Curing effects on the liver injury and chronic hepatitis after administration were evaluated by measuring plasma transaminase activity (p-GPT and p-GOT).

[2] = test system: cirrhosis induced by carbon tetrachloride; assay: therapeutic effect on cirrhosis, carbon tetrachloride; type: in vivo, rat (SD-strain); details: therapeutic group, diet 2000 ppm
Source text: Almost all the liver diseases induced by various causes are considered to advance, finally, to cirrhosis. Cirrhosis is a final stage of liver damage, which is difficult to classify from the causal viewpoint. Usually, experimental cirrhosis is induced by long-term repeated administration of carbon tetrachloride. The therapeutic effect of the compounds of this invention on cirrhosis, which had been caused by carbon tetrachloride administration, was examined.
A 10% solution of carbon tetrachloride in olive oil was administered to the male rat (4 week-old SD-strain) intraperitoneally at the dose of 0.5 ml carbon tetrachloride/kg twice a week over a period of 10 weeks, to induce cirrhosis. Four days after the final administration of carbon tetrachloride, the formation of pseudo-lobulus was confirmed. Then the diseased animals were divided into two groups. Therapeutic group was submitted a diet containing 2000 ppm of Compound 4, while the positive control group was submitted a normal diet. Control group, to which olive oil alone had been administered, was submitted a normal diet.
At 1, 2, 4 and 8 weeks after beginning of Compound 4 feeding, 5 animals from each group were sacrificed, and the therapeutic effect on cirrhosis was evaluated by examining plasma transaminase activity (p-GPT and p-GOT, Reitman-Frankel method) and observing histopathological changes.
Degree of cirrhosis in the histopathological examination was graded as follows: […]

[3] = test system: glucose metabolic function of liver; assay: effect on glucose metabolism (blood sugar); type: in vivo, mouse; details: for Blood Sugar: 250 mg/kg oral 6 h before glucose 4.0 g/kg
Method: Methods: The test compounds dissolved in olive oil and administered orally at the dose of 250 mg/kg to the mice. After 6 hours, 4.0 g/kg of glucose was orally administered. The same amount of glucose was given to the control animals. 0.02 ml of blood was taken from caudal vein of the mice at 30, 60, 90 and 120 min. after glucose administration. Blood sugar was measured by the procedure of Somogyi-Nelson. Number of animals used was 5 to 6 mice for each treatment.

[4] = test system: acute liver damage induced by chloroform; assay: protective effect on acute liver damage associated with centrilobular necrosis, chloroform model; type: in vivo, mouse (dd); details: chloroform 0.2 ml/kg oral; 100 mg/kg oral 6 h before; 24 h after
Method: Bromobenzene (hereinafter abbreviated as BB), Dimethylnitrosamine (hereinafter abbreviated as DMN) and chloroform (hereinafter abbreviated as CF) resemble carbon tetrachloride in inducing liver damage associated with centrilobular necrosis.
Test compound or anethol trithion was orally administered to animal at the dose of 100 mg/kg. Twenty four hours after it (in the case of dimethylnitrosamine, exceptionally fifteen hours after it) the animals were sacrificed and blood samples were collected. Indices of hepatotoxicity adoptable in each chemical were measured, from which the efficacy of the compound was evaluated.
CF male mouse 0.2 oral p-GPT activity

[5] = test system: alcohol metabolic function of liver; assay: effect on concentration of ethyl alcohol in the blood; type: in vivo, mouse; details: 250 mg/kg oral 6 h before ethanol 1,000 mg/kg
Method: The test compounds are dissolved or suspended in olive oil and administered orally at the dose of 250 mg/kg to the mice. After 6 hours, 1,000 mg/kg of ethyl alcohol was given orally. Blood was taken in a capillary from caudal vein at the time indicated in the results. The plasma was obtained by centrifugation. The concentration of ethyl alcohol in the plasma was measured by FID type gas liquid chromatography. Five mice were used for each group.

[6] = acute oral toxicity to male mice (LD50); details: mouse, in vivo
Source text: Further, these compounds have no detrimental effects on test animals administered therewith, so far as the doses thereof are within an ordinary administration range.

[7] = patient 1, liver injury (PAS), person, before administration
[8] = patient 2, chronic hepatitis, before administration
[9] = patient 3, chronic hepatitis, before administration
[10] = patient 4, chronic hepatitis, before administration
[11] = patient 5, chronic hepatitis, before administration
[12] = patient 6, chronic hepatitis, before administration

With CC(C)OC(=O)C(C(=O)OC(C)C)=C1SC=CS1 [Compound 4, diisopropyl 1,3-dithiol-2-ylidene malonate] the “plasma transaminase activity (p-GPT and p-GOT)” value ([1]; in words) was “useful for normalizing plasma transaminase activity”, the p-GOT activity ([1]; patient 1, after 3 days) was 270 Karmen Unit and the p-GPT activity ([1]; patient 1, after 3 days) was 215 Karmen Unit. For the same compound, the p-GOT activity ([1]; patient 1, after 4 days) was 231 Karmen Unit, the p-GPT activity ([1]; patient 1, after 4 days) was 169 Karmen Unit and the p-GOT activity ([1]; patient 1, after 7 days) was 81 Karmen Unit. It also gave a p-GPT activity ([1]; patient 1, after 7 days) of 94 Karmen Unit, a p-GOT activity ([1]; patient 1, after 12 days) of 36 Karmen Unit and a p-GPT activity ([1]; patient 1, after 12 days) of 41 Karmen Unit. It also gave a p-GOT activity ([1]; patient 1, after 15 days) of 37 Karmen Unit, a p-GPT activity ([1]; patient 1, after 15 days) of 24 Karmen Unit and a p-GOT activity ([1]; patient 1, after 19 days) of 24 Karmen Unit. It also gave a p-GPT activity ([1]; patient 1, after 19 days) of 21 Karmen Unit, a p-GOT activity [1, 7] of 270 Karmen Unit and a p-GPT activity [1, 7] of 270 Karmen Unit. The p-GOT activity ([1]; patient 2, after 14 days) was 68 Karmen Unit, the p-GPT activity ([1]; patient 2, after 14 days) was 62 Karmen Unit and the p-GOT activity ([1]; patient 2, after 35 days) was 24 Karmen Unit. The p-GPT activity ([1]; patient 2, after 35 days) was 43 Karmen Unit, the p-GOT activity [1, 8] was 270 Karmen Unit and the p-GPT activity [1, 8] was 270 Karmen Unit. It also gave a p-GOT activity ([1]; patient 3, after 14 days) of 100 Karmen Unit, a p-GPT activity ([1]; patient 3, after 14 days) of 96 Karmen Unit and a p-GOT activity ([1]; patient 3, after 56 days) of 77 Karmen Unit. For the same compound, the p-GPT activity ([1]; patient 3, after 56 days) was 87 Karmen Unit, the p-GOT activity [1, 9] was 145 Karmen Unit and the p-GPT activity [1, 9] was 163 Karmen Unit. For the same compound, the p-GOT activity ([1]; patient 4, after 2 days) was 60 Karmen Unit, the p-GPT activity ([1]; patient 4, after 2 days) was 113 Karmen Unit and the p-GOT activity ([1]; patient 4, after 9 days) was 68 Karmen Unit. The p-GPT activity ([1]; patient 4, after 9 days) was 94 Karmen Unit, the p-GOT activity ([1]; patient 4, after 16 days) was 49 Karmen Unit and the p-GPT activity ([1]; patient 4, after 16 days) was 62 Karmen Unit. The p-GOT activity ([1]; patient 4, after 62 days) was 33 Karmen Unit, the p-GPT activity ([1]; patient 4, after 62 days) was 33 Karmen Unit and the p-GOT activity [1, 10] was 80 Karmen Unit. For the same compound, the p-GPT activity [1, 10] was 185 Karmen Unit, the p-GOT activity ([1]; patient 5, after 8 days) was 78 Karmen Unit and the p-GPT activity ([1]; patient 5, after 8 days) was 119 Karmen Unit. For the same compound, the p-GOT activity ([1]; patient 5, after 28 days) was 65 Karmen Unit, the p-GPT activity ([1]; patient 5, after 28 days) was 79 Karmen Unit and the p-GOT activity ([1]; patient 5, after 30 days) was 57 Karmen Unit. It also gave a p-GPT activity ([1]; patient 5, after 30 days) of 57 Karmen Unit, a p-GOT activity [1, 11] of 95 Karmen Unit and a p-GPT activity [1, 11] of 94 Karmen Unit. It also gave a p-GOT activity ([1]; patient 6, after 14 days) of 108 Karmen Unit, a p-GPT activity ([1]; patient 6, after 14 days) of 306 Karmen Unit and a p-GOT activity ([1]; patient 6, after 23 days) of 48 Karmen Unit. It also gave a p-GPT activity ([1]; patient 6, after 23 days) of 121 Karmen Unit, a p-GOT activity ([1]; patient 6, after 36 days) of 33 Karmen Unit and a p-GPT activity ([1]; patient 6, after 36 days) of 65 Karmen Unit. For the same compound, the p-GOT activity ([1]; patient 6, after 56 days) was 24 Karmen Unit, the p-GPT activity ([1]; patient 6, after 56 days) was 53 Karmen Unit and the p-GOT activity ([1]; patient 6, after 82 days) was 24 Karmen Unit. For the same compound, the p-GPT activity ([1]; patient 6, after 82 days) was 39 Karmen Unit, the p-GOT activity [1, 12] was 83 Karmen Unit and the p-GPT activity [1, 12] was 354 Karmen Unit. It also gave a p-GOT activity ([2]; 1 week) of 562 ± 119 Karmen unit, a p-GPT activity ([2]; 1 week) of 169 ± 30 Karmen unit and a p-GOT activity ([2]; 2 weeks) of 182 ± 43 Karmen unit. The p-GPT activity ([2]; 2 weeks) was 43 ± 11 Karmen unit, the p-GOT activity ([2]; 4 weeks) was 142 ± 48 Karmen unit and the p-GPT activity ([2]; 4 weeks) was 45 ± 23 Karmen unit. The p-GOT activity ([2]; 8 weeks) was 120 ± 32 Karmen unit, the p-GPT activity ([2]; 8 weeks) was 33 ± 20 Karmen unit and the “Blood Sugar, percent of 0 min value” ([3]; 0 min) was 100%. The “Blood Sugar” value ([3]; 0 min) was 123 ± 10.9 mg/dL, the “Blood Sugar” value ([3]; 30 min) was 282 ± 25.2 mg/dL and the “Blood Sugar” value ([3]; 60 min) was 236 ± 19.7 mg/dL. The “Blood Sugar” value ([3]; 90 min) was 159 ± 18.3 mg/dL, the “Blood Sugar” value ([3]; 120 min) was 138 ± 14.4 mg/dL and the “Blood Sugar, percent of 0 min value” ([3]; 30 min) was 229%. The “Blood Sugar, percent of 0 min value” ([3]; 60 min) was 192%, the “Blood Sugar, percent of 0 min value” ([3]; 90 min) was 129% and the “Blood Sugar, percent of 0 min value” ([3]; 120 min) was 112%. The p-GPT [4] was 58 ± 15 Karmen unit, the “Concentration of Ethyl alcohol in Plasma” value ([5]; 0 min) was 25 ± 12 ppm and the “Concentration of Ethyl alcohol in Plasma” value ([5]; 5 min) was 582 ± 143 ppm. The “Concentration of Ethyl alcohol in Plasma” value ([5]; 15 min) was 468 ± 30 ppm, the “Concentration of Ethyl alcohol in Plasma” value ([5]; 30 min) was 220 ± 87 ppm and the “Concentration of Ethyl alcohol in Plasma” value ([5]; 60 min) was 29 ± 17 ppm. For the same compound, the “Concentration of Ethyl alcohol in Plasma” value ([5]; 120 min) was “not detected” and the LD50 [6] was 3120 mg/kg.
